Source: patent US20240400547A1, “2,6-PIPERIDINEDIONE COMPOUND AND APPLICATION THEREOF” (MEDSHINE DISCOVERY INC., priority 2021, published 2024)
Structures can show the parent of a compound that is named as a salt.

How the values were obtained:
[1] = Pharmacokinetic evaluation in mice; assay type: in vivo, C57BL/6N or CD-1 male mice; details: intragastric administration 10 mg/kg, experimental operation A, fasted overnight
From the text: In this study, C57BL/6N or CD-1 male mice were selected as test animals, and LC/MS/MS method was used to quantify plasma concentrations of the test compound intravenously injected or gavage to mice at different time points, so as to evaluate the pharmacokinetic profile of the compounds of the present disclosure in mice.
C57BL/6N mice (male, 20 to 30 g, 7 to 10 weeks old, Beijing VitalRiver) or CD-1 mice (male, 20 to 35 g, 7 to 10 weeks old, Beijing VitalRiver).
• The test compounds, either as clear or suspension solutions, were administered intravenously through the tail vein to C57BL/6N mice or CD-1 mice (either fasted overnight or fed) (vehicle: 10% DMSO/10% solutol/80% H2O or 5% DMSO/10% solutol/85% H2O), or intragastrically administered to C57BL/6N mice or CD-1 mice (either fasted overnight or fed). For intravenous injection, blood 50 μL was collected via the cheek vein puncture at 0 h (pre-administration), 0.083, 0.25, 0.5, 1, 2, 4, 6, 8, and 24 h after administration, and placed in an anticoagulant tube added with heparin sodium. The mixture was thoroughly vortexed and mixed, and centrifuged at 6000 g for 3 minutes at 2-8° C. For oral administration, blood was collected via the cheek vein puncture at 0 h (pre-administration), 0.083, 0.25, 0.5, 1, 2, 4, 6, 8, and 24 h after administration, and placed in an anticoagulant tube added with heparin sodium. The mixture was thoroughly vortexed and mixed, and centrifuged at 6000 g for 3 minutes at 2-8° C. Plasma concentrations were determined by LC-MS/MS method, and relevant pharmacokinetic parameters were calculated using Phoenix WinNonlin8.2.0 pharmacokinetic software with non-compartmental model linear-log trapezoidal method.
• The test compounds, as clear solutions, were administered intravenously through the tail vein to CD-1 mice (fasted overnight) (vehicle: 10% DMSO/10% solutol/80% H2O or 5% DMSO/10% solutol/85% H2O), or intragastrically administered to CD-1 mice (fasted overnight). For intravenous injection, blood was collected via the saphenous vein puncture at 0 h (pre-administration), 0.083, 0.25, 0.5, 1, 2, 4, 8, and 24 h after administration, and placed in a EDTA-K2 anticoagulant tube. The mixture was thoroughly vortexed and mixed, and centrifuged at 3200 g for 10 minutes at 4° C. to obtain plasma. For oral administration, blood was collected via the saphenous vein puncture at 0 h (pre-administration), 0.083, 0.25, 0.5, 1, 2, 4, 8, and 24 h after administration, and placed in a EDTA-K2 anticoagulant tube. The mixture was thoroughly vortexed and mixed, and centrifuged at 3200 g for 10 minutes at 4° C. to obtain plasma. Plasma concentrations were determined by LC-MS/MS method, and relevant pharmacokinetic parameters were calculated using Phoenix WinNonlin 6.3 pharmacokinetic software with non-compartmental model linear-log trapezoidal method.

[2] = molecular target: T1, IRAK4 (Homo sapiens, UniProt Q9NWZ3); assay: Target protein degradation in K562 IRAK4-HiBiT cells (Nano-Glo HiBiT); assay type: cell-based; details: 16 to 18 hours; for Dmax: read-out: Maximum degradation rate
T1 construct: expressed in transfected cells; host or cells: K562 IRAK4-HiBiT cells
T1 sequence (Q9NWZ3 1-460): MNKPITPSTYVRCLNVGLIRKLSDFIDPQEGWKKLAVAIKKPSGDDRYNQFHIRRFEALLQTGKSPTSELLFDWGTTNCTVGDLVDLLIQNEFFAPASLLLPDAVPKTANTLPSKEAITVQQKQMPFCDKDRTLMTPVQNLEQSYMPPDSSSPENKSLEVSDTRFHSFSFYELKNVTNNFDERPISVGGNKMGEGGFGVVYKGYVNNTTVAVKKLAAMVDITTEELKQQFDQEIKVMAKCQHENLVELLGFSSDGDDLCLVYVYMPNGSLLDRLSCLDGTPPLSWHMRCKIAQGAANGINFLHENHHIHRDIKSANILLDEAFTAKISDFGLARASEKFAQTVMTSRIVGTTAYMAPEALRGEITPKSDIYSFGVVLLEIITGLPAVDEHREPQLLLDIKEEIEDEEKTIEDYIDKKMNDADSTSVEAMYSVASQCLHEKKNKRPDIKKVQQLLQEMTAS
Protocol: Experimental objective: The experiment aims to evaluate the degradation effect of the test compounds on the target protein IRAK4 in K562 IRAK4-HiBiT cells.
• Cells: K562 IRAK4-HiBiT cells • Culture medium: RPMI 1640+10% fetal bovine serum+2 mM glutamine+1 mM sodium pyruvate+penicillin/streptomycin. • Positive control: 1000 nM; negative control: 0.1% DMSO.
• (1). The powder of the compound to be tested was dissolved in DMSO to a storage concentration of 10 mM. A total of 9 μL of the 10 mM of the compound to be tested was manually pipetted into the 1st and 13th columns of the LDV plate using a pipettor; • (2). A volume of 6 μL of DMSO was added to columns 2-12 and 14-24 using a Multidrop Combi; • (3). A 3-fold dilution of the test compounds (3 μL+6 μL) was performed using Bravo, for columns 1-11 and 13-23; • (4). According to the plate layout, 25 nL of compound solution (columns 1-24 of the LDV plate) was transferred to the experimental plate using Echo; • (5) 25 nL of the 1 mM positive control solution was transferred to the assay plate as a 100% degradation control (i.e. LC, HPE), and 25 nL of DMSO was transferred to the assay plate as a 0% control (i.e. HC, ZPE).
• (1) The culture medium was discarded, and the cells were washed once with DPBS, digested with trypsin, counted, and prepared into a cell suspension of […]. • (2) Using the MultiDrop Combi at a medium speed, 25 μL/well of the cell suspension was added to the experimental plate containing the test compounds; • (3) The experimental plate containing cells was returned to the incubator and cultured for 16 to 18 hours at 37° C. and 5% CO2.
• (1). Using the MultiDrop Combi at a high speed, 25 μL/well of the assay reagent (NanoGlo lytic solution+substrate+LgBit protein) was added to the assay plate, followed by shaking for 10 minutes; • (2) The plate was centrifuged at 2000 rpm for 1 minute to remove any bubbles; • (3) Readings were obtained by using an Envision, US Luminescence reader.
To calculate the degradation rate (DR) of the test compounds, the following formula is used: IR (%)=(RLU vehicle control−RLU compound)/(RLU vehicle control−RLU positive control)×100%. The solvent control refers to the blank control. The degradation rates of compounds at different concentrations were calculated in Excel, and then XLFit software was used to plot inhibition curves and calculate relevant parameters, including minimum degradation rate, maximum degradation rate, and DC50.

[3] = molecular target: T2, IKZF1 (Homo sapiens, UniProt Q13422+Q96SW2); assay: In Cell Western of IKZF1 protein expression level in MM.1S cells; assay type: cell-based; details: IKZF1, MM.1S cells, 24 hours; for Dmax: MM1.S, read-out: Maximum degradation rate Dmax
T2 construct: host or cells: MM.1S cells
T2 sequence (Q13422 whole entry): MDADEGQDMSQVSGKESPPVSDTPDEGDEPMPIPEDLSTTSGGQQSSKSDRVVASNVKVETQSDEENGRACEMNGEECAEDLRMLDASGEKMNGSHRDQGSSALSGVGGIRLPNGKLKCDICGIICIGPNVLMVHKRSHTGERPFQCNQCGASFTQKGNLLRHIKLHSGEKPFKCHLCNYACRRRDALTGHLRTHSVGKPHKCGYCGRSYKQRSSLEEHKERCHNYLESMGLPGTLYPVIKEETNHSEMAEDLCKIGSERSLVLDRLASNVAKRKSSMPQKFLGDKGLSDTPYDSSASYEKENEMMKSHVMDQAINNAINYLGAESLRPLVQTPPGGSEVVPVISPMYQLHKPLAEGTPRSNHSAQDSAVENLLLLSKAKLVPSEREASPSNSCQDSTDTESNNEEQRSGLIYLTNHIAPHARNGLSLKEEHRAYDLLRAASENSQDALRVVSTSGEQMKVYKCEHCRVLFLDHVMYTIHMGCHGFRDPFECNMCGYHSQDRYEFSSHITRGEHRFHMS
T2 sequence (Q96SW2 whole entry): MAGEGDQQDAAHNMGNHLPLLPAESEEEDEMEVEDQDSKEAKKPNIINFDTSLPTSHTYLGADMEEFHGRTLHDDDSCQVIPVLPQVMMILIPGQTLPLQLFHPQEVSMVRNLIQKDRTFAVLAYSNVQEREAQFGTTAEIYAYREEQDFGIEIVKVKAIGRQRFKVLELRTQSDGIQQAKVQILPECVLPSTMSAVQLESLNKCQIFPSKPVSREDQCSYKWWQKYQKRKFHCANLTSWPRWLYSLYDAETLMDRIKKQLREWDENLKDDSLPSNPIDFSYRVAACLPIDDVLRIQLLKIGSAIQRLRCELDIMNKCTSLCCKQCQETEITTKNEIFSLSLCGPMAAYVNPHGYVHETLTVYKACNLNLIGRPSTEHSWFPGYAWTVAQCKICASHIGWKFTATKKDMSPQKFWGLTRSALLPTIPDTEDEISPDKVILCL
T2 sequence (Q16531 whole entry partner): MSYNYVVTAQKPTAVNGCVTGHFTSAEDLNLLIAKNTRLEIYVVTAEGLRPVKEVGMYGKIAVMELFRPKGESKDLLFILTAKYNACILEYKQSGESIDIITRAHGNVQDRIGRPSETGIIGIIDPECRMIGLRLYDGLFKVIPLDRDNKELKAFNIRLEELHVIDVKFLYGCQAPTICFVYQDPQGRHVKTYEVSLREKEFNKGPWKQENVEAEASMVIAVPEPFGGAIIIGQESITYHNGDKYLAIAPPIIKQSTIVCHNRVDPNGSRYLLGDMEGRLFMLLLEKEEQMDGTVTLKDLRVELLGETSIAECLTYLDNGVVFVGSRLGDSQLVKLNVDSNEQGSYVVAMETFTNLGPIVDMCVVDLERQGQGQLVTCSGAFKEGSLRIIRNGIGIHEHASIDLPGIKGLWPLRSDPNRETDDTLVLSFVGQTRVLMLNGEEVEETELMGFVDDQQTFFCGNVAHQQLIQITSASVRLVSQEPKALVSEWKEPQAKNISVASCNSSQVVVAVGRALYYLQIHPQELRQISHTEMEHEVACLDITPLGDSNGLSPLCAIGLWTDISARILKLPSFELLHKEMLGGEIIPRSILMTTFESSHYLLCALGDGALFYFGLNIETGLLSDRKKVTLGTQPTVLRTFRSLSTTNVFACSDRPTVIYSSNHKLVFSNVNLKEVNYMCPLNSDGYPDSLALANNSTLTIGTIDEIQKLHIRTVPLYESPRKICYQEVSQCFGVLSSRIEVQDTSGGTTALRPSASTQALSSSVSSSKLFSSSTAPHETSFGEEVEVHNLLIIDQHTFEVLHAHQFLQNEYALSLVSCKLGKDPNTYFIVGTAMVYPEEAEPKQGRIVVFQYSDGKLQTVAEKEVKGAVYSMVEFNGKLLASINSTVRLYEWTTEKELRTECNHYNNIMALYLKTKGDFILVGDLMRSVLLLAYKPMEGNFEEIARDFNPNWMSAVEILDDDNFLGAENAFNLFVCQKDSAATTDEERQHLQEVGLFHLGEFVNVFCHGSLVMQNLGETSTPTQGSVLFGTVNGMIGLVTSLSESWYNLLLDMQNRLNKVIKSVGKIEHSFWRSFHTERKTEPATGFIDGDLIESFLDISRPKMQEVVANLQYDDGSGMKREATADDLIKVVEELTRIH
Protocol: Experimental objective: The experiment aims to assess the degradation effect of the test compounds on IKZF1 and 1KZF3 proteins in MM.1S cells by evaluating the impact of the test compounds on the expression levels of IKZF1 and IZKZF3 proteins in MM.1S cells.
• Cell lines: MMN.1 S cell (sourced from ATCC; Cat. No CRL-2974) • Negative control: 0.100 DMSO.
• 1) Log phase MM.1 S cells were plated in a 96-well plate at 1.2×10^5 cells per well and cultured overnight; • 2) The next day, compounds were added with a starting concentration of 300 nM, diluted threefold across three replicate wells for 10 concentration gradients (including DMSO), and the cells were incubated for 24 hours in an incubator; • 3) The cells were centrifuged, and the supernatant was carefully removed. 150 μL of 4% paraformaldehyde fixative was added along the wall of the wells, avoiding contact with the bottom cells, and the cells were incubated at room temperature for 20 minutes; • 4) Lysis buffer was prepared by mixing 0.5 mL of 10% Triton X-100 with 49.5 mL of PBS until homogenous; • 5) 200 μL of lysis buffer was added along the well walls, again avoiding the bottom cells, and incubated on a shaker at room temperature for 5 minutes; • 6) The wells were washed four times; • 7) 150 μL of Licor […] Blocking Buffer was added along the well walls, avoiding the bottom cells, and the cells were incubated on a shaker at room temperature for 1.5 hours; • 8) Ikaros (D6N9Y) Rabbit mAb, Aiolos (D1C1E) Rabbit mAb and GAPDH mouse mAb (proteintech, 60004-1-Ig) were diluted at a 1:100 ratio using antibody dilution buffer; • 9) 50 μL of mixed antibody was added to each well with three replicate wells, and the cells were incubated overnight on a shaker at 4° C.; • 10) PBST (PBS with 0.1% Tween 20) was prepared; • 11) The primary antibodies were removed, and 200 μL of PBST was added along the well walls, avoiding the bottom cells, and the cells were incubated on a shaker at room temperature for 5 minutes; • 12) The wells were washed four times; • 13) Secondary antibody dilution buffer was prepared by adding Tween 20 to Licor […] Blocking Buffer to a final concentration of 0.2%; • 14) Fluorescent secondary antibodies were diluted in the dark at a 1:800 ratio. To 400 μL of secondary antibody dilution solution, 0.5 μL of each IRDye 800CW and IRDye 680CW (corresponding to the primary antibodies) was added. • 15) 50 μL of the diluted fluorescent secondary antibodies was added to each well and the cells were incubated on a shaker at room temperature in the dark for 60 minutes; • 16) The secondary antibodies were removed, and 200 μL of PBST was added along the well walls, avoiding the bottom cells, and the cells were incubated on a shaker at room temperature in the dark for 5 minutes; • 17) The wells were washed four times; immediately after washing, the Odyssey Gel Imaging System was used for detection at dual wavelengths of 700 nm and 800 nm.
Using GraphPad Prism 6 software, inhibition rate data was entered to fit the curve and calculate the DC50 value.

| SMILES | Area under drug-time curve (0-inf) [1] [µM·h] | Peak concentration [1] [µM] | Time to peak concentration [1] [h] | DC50 [2] [nM] | Dmax [2] [%] | DC50 [3] [nM] | Dmax [3] [%] |
| --- | --- | --- | --- | --- | --- | --- | --- |
| O=C1CCC(c2coc3ccc(NC(=O)CN4CCN(C[C@H]5CC[C@H](n6cc(NC(=O)c7coc(-c8ccnc(NCC9CC9)c8)n7)c(C(F)F)n6)CC5)CC4)cc23)C(=O)N1 (some centres unmarked) [Hydrochloride of WX001] |  |  |  | 76.4 | 54.3 |  |  |
| CN(CCCOCCCc1ccc2c(ccc3occ(C4CCC(=O)NC4=O)c32)c1)C[C@H]1CC[C@H](n2cc(NC(=O)c3coc(-c4ccnc(NCC5CC5)c4)n3)c(C(F)F)n2)CC1 (some centres unmarked) [Hydrochloride of WX008] |  |  |  | 122 | 82.2 | 4.66 | 81.4 |
| CN(CCCOCCCc1cccc2c1ccc1onc(C3CCC(=O)NC3=O)c12)CC1CCC(n2cc(NC(=O)c3coc(-c4ccnc(NCC5CC5)c4)n3)c(C(F)F)n2)CC1 (centres unmarked) [Hydrochloride of WX013] |  |  |  | 48.7 | 101 |  |  |
| CN(CCCOCCCc1cccc2c1ccc1occ(C3CCC(=O)NC3=O)c12)CC1CCC(n2cc(NC(=O)c3coc(-c4ccnc(NCC5CC5)c4)n3)c(C(F)F)n2)CC1 (centres unmarked) [Trifluoroacetate of WX010] |  |  |  | 50.2 | 81.7 |  |  |
| CC(C)(O)c1cc2nc([C@H]3CC[C@H](CN4CC5(CC(CCNc6ccc7c(ccc8onc(C9CCC(=O)NC9=O)c87)c6)C5)C4)CC3)sc2cc1NC(=O)c1cccc(C(F)(F)F)n1 (some centres unmarked) [WX021] |  |  |  |  |  | 2.66 | 87.6 |

The remaining lines, values ahead:

| Area under drug-time curve (0-inf) [1] [µM·h] | Peak concentration [1] [µM] | Time to peak concentration [1] [h] | DC50 [2] [nM] | Dmax [2] [%] | DC50 [3] [nM] | Dmax [3] [%] | SMILES |
| --- | --- | --- | --- | --- | --- | --- | --- |
| 5.10 | 0.34 | 3.33 | 15.1 | 92 |  |  | CC(C)(O)c1cc2nc([C@H]3CC[C@H](CN4CCC(C(F)(F)C(=O)Nc5cccc6c5ccc5onc(C7CCC(=O)NC7=O)c56)CC4)CC3)sc2cc1NC(=O)c1cccc(C(F)(F)F)n1 (some centres unmarked) [Formate of WX019] |
|  |  |  | 7.16 | 114 | 31.3 | 57.2 | CC(C)(O)c1cc2nc([C@H]3CC[C@H](CN4CCC(C(F)(F)C(=O)Nc5cccc6c(C7CCC(=O)NC7=O)noc56)CC4)CC3)sc2cc1NC(=O)c1cccc(C(F)(F)F)n1 (some centres unmarked) [Formate of WX023] |
|  |  |  | 1.75 | 117 | 35.2 | 60.8 | O=C1CCC(c2noc3c(NC(=O)C(F)(F)C4CCN(C[C@H]5CC[C@H](n6cc(NC(=O)c7coc(-c8ccnc(NCC9CC9)c8)n7)c(C(F)F)n6)CC5)CC4)cccc23)C(=O)N1 (some centres unmarked) [Formate of WX024] |
|  |  |  | 4.26 | 112 | 38.8 | 61.8 | CC(C)(O)c1cc2nc([C@H]3CC[C@H](CN4CCN(CC(=O)Nc5cccc6c(C7CCC(=O)NC7=O)noc56)CC4)CC3)sc2cc1NC(=O)c1cccc(C(F)(F)F)n1 (some centres unmarked) [Formate of WX029] |
|  |  |  | 47.1 | 100 | 7.7 | 81.8 | O=C1CCC(c2noc3ccc4cc(NC(=O)CN5CCN(CC6CCC(n7cc(NC(=O)c8coc(-c9ccnc(NCC%10CC%10)c9)n8)c(C(F)F)n7)CC6)CC5)ccc4c23)C(=O)N1 (centres unmarked) [Hydrochloride of WX015] |
|  |  |  | 35.1 | 97.4 |  |  | O=C1CCC(c2coc3ccc4cc(NC(=O)CN5CCN(C[C@H]6CC[C@H](n7cc(NC(=O)c8coc(-c9ccnc(NCC%10CC%10)c9)n8)c(C(F)F)n7)CC6)CC5)ccc4c23)C(=O)N1 (some centres unmarked) [WX007] |
